The source made the active and inactive calls. The calls are words filed in the database; no cut-off is given here.
Key:
[1] = Antiproliferative activity against green monkey kidney cells; assay type: cell-based; conditions: chlorocebus aethiops
HCT-116 = assay: Antitumor activity against human HCT116 cells; assay type: functional, cell-based
Candida albicans = assay: Antimicrobial activity against Candida albicans; assay type: functional, organism-based

- IC50 (HCT-116): 0.27 µM
SMILES: CO[C@@H]1[C@@H]2O[C@H](C[C@@H](O)[C@H](C)[C@@H](O)/C(C)=C/[C@H](C)[C@H](O)/C=C/CC(O)CC(C(NC(=O)CC(C)CCC(C)C(O)/C(C)=C/C(C)[C@@H](O)[C@H](NC(=O)/C=C/C(C)(C)C(=O)[C@@H](C)[C@@H](O)C(C)C)[C@@H](O)C(C)C)C(C)O)OC(=O)C(C(O)C(=O)O)NC(=O)/C=C/C=C/C=C/C=C/C=C/[C@H]2OC)C[C@@H]1C (stereo partly drawn) [MIRABILIN MACROLIDE LACTUM]
- Activity [1]: Not Active
- Activity (Candida albicans): inactive
